Laboratory results reported in patent US20160024051A1, “SALTS AND SOLID FORMS OF ISOQUINOLINONES AND COMPOSITION COMPRISING AND METHODS OF USING THE SAME” (INFINITY PHARMACEUTICALS, INC., priority 2013, published 2016).

How the values were obtained:
[1] = Gravimetric vapour sorption (GVS); type: physicochemical; conditions: text statements; listed as Form 4
Method: Sorption isotherms were obtained using a Hiden IGASorp moisture sorption analyser, controlled by CFRSorp software. The sample temperature was maintained at 25° C. by a Huber re-circulating water bath. The humidity was controlled by mixing streams of dry and wet nitrogen, with a total flow rate of 250 ml/min. The relative humidity (RH) was measured by a calibrated Vaisala RH probe (dynamic range of 0-95% RH), located near the sample. The weight change, (mass relaxation) of the sample as a function of % RH was constantly monitored by the microbalance (accuracy ±0.001 mg). Typically 10-20 mg of sample was placed in a tared mesh stainless steel basket under ambient conditions. The sample was loaded and unloaded at 40% RH and 25° C. (typical room conditions). A moisture sorption isotherm was performed as outlined below (2 scans giving 1 complete cycle). The standard isotherm was performed at 25° C. at 10% RH intervals over a 0-90% RH range.
The software uses a least squares minimisation procedure together with a model of the mass relaxation, to predict an asymptotic value. The measured mass relaxation value must be within 5% of that predicted by the software, before the next % RH value is selected. The minimum equilibration time was set to 1 hour and the maximum to 4 hours. The sample was recovered after completion of the isotherm and re-analysed by XRPD.

[2] = Drying at 50° C./vacuum, re-analysis by XRPD; type: physicochemical
Method: (§1) Samples from the screen using amorphous free base Compound 1 were analysed by ^1H-NMR and DSC, and re-analysis by XRPD was also carried out after drying at 50° C./vacuum and storage at 40° C./75% RH (the same sample was dried and stored at elevated humidity).

[3] = Storage at 40° C./75% RH (elevated humidity) for 1 week, re-analysis by XRPD/HPLC
Method: The crystalline solids were filtered, dried at ambient conditions, and stored at 40° C./75% RH for 1 week and analyzed by ^1H NMR/IC.
as §1

[4] = Storage at 25° C./93% RH for 1 week, re-analysis by XRPD/HPLC; type: physicochemical; conditions: after 1 week, XRPD

## COc1cc(-c2cccc3cc([C@H](C)Nc4nc(N)ncc4C#N)n(-c4ccccc4)c(=O)c23)ccn1 [Form 4 of the free base of Compound 1]
[1]
  GVS behaviour (hydration / desolvation): hydrates above 80% RH, but reversibly dehydrates back at 40% RH
[2]; screening sample from H2O
  XRPD after drying at 50° C./vacuum: No changes
[3]; screening sample from H2O, after drying
  XRPD after Storage at 40° C./75% RH: No changes

## CC(=O)O.COc1cc(-c2cccc3cc([C@H](C)Nc4nc(N)ncc4C#N)n(-c4ccccc4)c(=O)c23)ccn1.COc1cc(-c2cccc3cc([C@H](C)Nc4nc(N)ncc4C#N)n(-c4ccccc4)c(=O)c23)ccn1 [Batch 2 of Form 6]
[4]
  Stability at 25° C./93% RH: Very slight changes
[3]; after 1 week, XRPD
  Stability at 40° C./75% RH: Very slight changes

## COc1cc(-c2cccc3cc([C@H](C)Nc4nc(N)ncc4C#N)n(-c4ccccc4)c(=O)c23)ccn1 [Form 5 of the free base of Compound 1]
[2]; screening sample from 2-MeTHF
  XRPD after drying at 50° C./vacuum: No changes
[2]; screening sample from Acetone
  XRPD after drying at 50° C./vacuum: No changes
[2]; screening sample from Acetonitrile
  XRPD after drying at 50° C./vacuum: No changes
[2]; screening sample from DCM
  XRPD after drying at 50° C./vacuum: No changes
[2]; screening sample from DCM:MeOH 1:1
  XRPD after drying at 50° C./vacuum: No changes
[2]; screening sample from DME
  XRPD after drying at 50° C./vacuum: No changes
[2]; screening sample from EtOAc
  XRPD after drying at 50° C./vacuum: No changes
[2]; screening sample from EtOH
  XRPD after drying at 50° C./vacuum: No changes
[2]; screening sample from EtOH/5% water
  XRPD after drying at 50° C./vacuum: No changes
[2]; screening sample from IPA
  XRPD after drying at 50° C./vacuum: No changes
[2]; screening sample from MIBK
  XRPD after drying at 50° C./vacuum: No changes
[2]; screening sample from MeCN/5% water
  XRPD after drying at 50° C./vacuum: No changes
[2]; screening sample from MeOH
  XRPD after drying at 50° C./vacuum: No changes
[2]; screening sample from TBME
  XRPD after drying at 50° C./vacuum: No changes
[2]; screening sample from THF
  XRPD after drying at 50° C./vacuum: No changes
[2]; screening sample from THF/5% water
  XRPD after drying at 50° C./vacuum: No changes
[3]; screening sample from 2-MeTHF, after drying
  XRPD after Storage at 40° C./75% RH: No changes
[3]; screening sample from Acetone, after drying
  XRPD after Storage at 40° C./75% RH: No changes
[3]; screening sample from Acetonitrile, after drying
  XRPD after Storage at 40° C./75% RH: No changes; NMR
[3]; screening sample from DCM, after drying
  XRPD after Storage at 40° C./75% RH: No changes
[3]; screening sample from DCM:MeOH 1:1, after drying
  XRPD after Storage at 40° C./75% RH: No changes
[3]; screening sample from DME, after drying
  XRPD after Storage at 40° C./75% RH: No changes
[3]; screening sample from EtOAc, after drying
  XRPD after Storage at 40° C./75% RH: No changes
[3]; screening sample from EtOH, after drying
  XRPD after Storage at 40° C./75% RH: No changes
[3]; screening sample from EtOH/5% water, after drying
  XRPD after Storage at 40° C./75% RH: No changes
[3]; screening sample from IPA, after drying
  XRPD after Storage at 40° C./75% RH: No changes
[3]; screening sample from MIBK, after drying
  XRPD after Storage at 40° C./75% RH: No changes
[3]; screening sample from MeCN/5% water, after drying
  XRPD after Storage at 40° C./75% RH: No changes
[3]; screening sample from MeOH, after drying
  XRPD after Storage at 40° C./75% RH: No changes
[3]; screening sample from TBME, after drying
  XRPD after Storage at 40° C./75% RH: No changes
[3]; screening sample from THF, after drying
  XRPD after Storage at 40° C./75% RH: No changes; NMR
[3]; screening sample from THF/5% water, after drying
  XRPD after Storage at 40° C./75% RH: No changes
